Consider five compounds from patent US20230181463A1, “OLEOGEL AND OLEOPASTE COMPOSITIONS AND USES THEREOF” (Massachusetts Institute of Technology, priority 2020, published 2023).

How the values of data set [1] were obtained: Solubility of three anti-infectives, azithromycin, praziquantel and lumefantrine, were measured in 108 formulations prepared by mixing various oils and solubilizers (9 oils×11 solubilizers, and 9 oils without solubilizer). Given the focus in rapid clinical translation, the weight fraction of the solubilizer was limited to the maximum level they were used in FDA-approved products.
Approximately two grams of oil-solubilizer mixtures in a 20 mL glass vial. Drug was added in excess to each formulation and the mixture was stirred overnight at room temperature. One milliliter of the mixture was removed, placed in a microcentrifuge tube, and centrifuged at 6000 rpm for 15 min to remove insoluble drug particles. A fraction of the supernant was removed and drug was extracted using methanol or acetonitrile. Drug concentrations in the extracts were measured using HPLC.
An Agilent 1260 Infinity II HPLC system equipped with a quaternary pump, autosampler, thermostat, control module, and diode array detector. Data processing and analysis was performed using OpenLab CDS ChemStation®. Praziquantel chromatographic separations were carried out on an Agilent ZORBAX Eclipse Plus C-18 analytical column (4.6>150 mm) with 5 μm particles, maintained at 40° C. Gradient separation at a flow rate of 1 mL/min was achieved using water and acetonitrile, which corresponds to A and B, respectively. The run time was 5 minutes with a 3-minute post-run and a gradient profile of: 0 min A: 70% and B: 30%, 2.5 min A: 30% and B: 70%. The injection volume was 5 μL. The diode array detector was set using an ultraviolet (UV) detection wavelength of 217 nm with no reference at an acquisition rate of 40 hertz.
Azithromycin chromatographic separations were carried out on an Agilent 4.6×150 mm ZORBAX Eclipse Plus C-18 analytical column with 5 μm particles, maintained at 40° C. Isocratic separation at a flow rate of 1 mL/min was achieved using 10% 10 mM ammonium phosphate dibasic in water and 90% methanol. The run time was 6 minutes. The injection volume was 10 μL. The diode array detector was set using an ultraviolet (UV) detection wavelength of 210 nm with no reference at an acquisition rate of 5 hertz.
Lumefantrine chromatographic separations were carried out on an Agilent Poroshell 120 PFP column (4.6×100 mm) with 2.7 μm particles, maintained at 40° C. Gradient separation at a flow rate of 1 mL/min was achieved using 0.1% formic acid in water and methanol, which corresponds to A and B, respectively. The run time was 7 minutes with a 3-minute post-run and a gradient profile of: 0 min A: 30% and B: 70%, 3 min A: 5% and B: 95%. The injection volume was 10 μL. The diode array detector was set using an ultraviolet detection wavelength of 303 nm with no reference wavelength at an acquisition rate of 40 hertz.

Data set [2] can be described thus: In vitro digestion and drug bioaccessibility of praziquantel-loaded gel. The settings on record: from oleogel. Type of data set: in vitro ADME. As for the experimental part: The digestion of gels were characterized in three simulated conditions—oral, gastric and intestinal phases (fasted state).
Simulated salivary fluid (SSF) pH 7.0 was prepared in the presence of a-amylase based on a previously described method^24,43 with slight modifications. Briefly, SSF stock solution (1.25x concentrated, 3.5 mL) was placed in a glass vial. The 1.25× SSF stock solution contained the following ingredients: 15.1 mmol/L potassium chloride, 3.7 mmol/L potassium dihydrogen phosphate, 13.6 mmol/L sodium bicarbonate, 0.15 mmol/L magnesium chloride and 0.06 mmol/L ammonium carbonate. To this 0.5 mL of a-amylase solution (0.3 mg/mL in SSF stock solution), 0.025 mL of 0.3M calcium chloride and 0.975 mL of water were added and thoroughly mixed.
The SSF was added to 0.5 g praziquantel-loaded gel placed in a pre-heated glass vial at 37° C. containing 5 glass beads to aid in mixing. The vials were placed in an incubator shaker and shaken at 160 rpm and 37° C. One hundred microliters of the sample were withdrawn periodically, centrifuged at 14,000 rpm for 15 min. The supernant was collected and syringe filtered through a 0.22 μm nylon syringe filter (Nalgene Syringe Filters, Thermo Scientific™). Drug concentration in the filtrate was analyzed using HPLC.
In vitro digestion in gastric phase was performed in 7.5 mL simulated gastric fluid (SGF) pH 2 (2 g/L sodium chloride, 2.917 g/L concentrated hydrochloric acid) in the presence of pepsin (3.4 g/L). […] Samples (0.2 mL) were withdrawn periodically, centrifuged at 14,000 rpm for 15 min and syringe filtered through 0.22 μm nylon syringe filters (Nalgene Syringe Filters, Thermo Scientific™) prior to drug quantification with HPLC.
The fasting state simulated intestinal fluid version 2 (FaSSIF-V2) medium pH 6.5 was prepared based on a previously described method^44 in the presence of pancreatin (8×USP specification). […] Samples were then centrifuged for 15 min at 14,000 rpm at room temperature and drug concentration in the supernatant was measured using HPLC.

Data set [3] in a line: Stability of AZT during synthesis of oleogel (heating in cottonseed oil at 90° C.). It is filed as physicochemical. The settings on record: AZT 1 mg/g in cottonseed oil; 0, 5 and 10 mins; one-way ANOVA, α=0.05. The protocol: Twenty-five milligrams of AZT were added to cottonseed oil in a glass vial at concentration of 1 mg/g. After 60 minutes of sonication, all drug powder was dissolved. The AZT solution was divided into three parts (8 ml each). One part was maintained at room temperature, while the other two were placed on a hot plate at 90° C. for 5 minutes and 10 minutes. Forty microliters from each vial were pipetted into 1.5-ml microcentrifuge tube containing 1 ml of methanol. AZT was extracted from the oil phase into the methanol phase by shaking on a horizontal shaker overnight. Following overnight extraction, the oil phase was separated from the methanol phase by centrifugation at 14000 RPM for 10 minutes. The methanol phase was diluted before analysis using liquid chromatography-mass spectrometry (LC-MS).
AZT concentration in methanol extract was analysed by LC-MS on Agilent 1260 Infinity I Quaternary LC equipped with a diode array detector (DAD) and Agilent 6120B Single Quadrupole mass spectrometer hardware and software. Roxithromycin (RXT) was used as an internal standard of AZT analysis. The linear range of AZT detection was 10-5000 ng/ml. […] The flow rate was 0.75 ml/min while chromatograms were recorded at wavelength of 210 nm, bandwidth of 4.0 nm and 5 Hz data acquisition rate. […]

For data set [4] the following is noted: cited from earlier work.
The conditions of data set [5]: model input, Beringer et al., 2005; cited from earlier work.
The nature of data set [6]: Stability of drugs in oleogels. Type of data set: physicochemical. The settings on record: oleogel, 40° C., mean±S.D., n=5. As for the experimental part:
Finally, the stability of drugs in oleogels was tested (Table 3.3). Oleogels loaded with drugs (Azithromycin, Lumefantrine, or Ivermectin) were placed at different temperatures. At various times, drug was extracted from the oleogel and the concentration was measured using HPLC-UV or LC-MS/MS. Drug stability (last column) is represented as mean±S.D., n=5.

A short description of data set [7]: Solubility of albendazole in oil and oil-solubilizer formulations. Particulars: 28 formulations.
Data set [8] in a line: Release of ABZ from non-oil-based formulations in SIF. It is filed as in vitro ADME. As for the experimental part: To test the effect of nanosizing, the rate of release of ABZ in SIF when ABZ was used unformulated and when formulated in nanoparticles was compared. Additionally, a physical mixture of ABZ, PVA and Tween 20 was prepared to delineate the effects that the excipients had on drug release and the effect of nanosizing.
For the release study, 17.5 mg of the nanoparticle formulation, or physical mixture were placed in a 50-ml falcon tube. ABZ powder equivalent to the amount present in the physical mixture and nanoparticle formulation was used for the drug release. SIF was added to each formulation and drug release studies were conducted as described for AZT. Concentration of ABZ in release media was measured using HPLC.
ABZ samples after being prepared with methanol were analysed by Agilent 1260 Infinity I Quaternary LC equipped with a diode array detector (DAD). Isocratic elution of 0.1% formic acid in distilled water and acetonitrile was 55:45 with flow rate of 1 ml/min. Injection volume was 5 μl, and Zobrax Eclipse XDB C18 column (4.6×150 mm) was used at 40° C. The running time was 6 minutes and the retention time of ABZ is 3.4 mins. DAD was employed, and readout was detected at the wavelength of 254 nm, bandwidth of 4.0 nm and 10 Hz data acquisition rate. The method gained good peak shape and symmetry.

The conditions of data set [9]: Lindenberg et al., 2004; cited from earlier work.
The conditions of data set [10]: cited from earlier work. The source holds these as a separate data set.
Data set [11] can be described thus: Stability of ivermectin during heating. It is filed as physicochemical. The settings on record: peceol, ricebran wax, cottonseed oil. The protocol: As manufacturing of the formulation involves heating, the stability of ivermectin during heating was assessed (see FIG. 24).

In the case of `O=C(C1CCCCC1)N1CC(=O)N2CCc3ccccc3C2C1` (stereo not drawn) [praziquantel], in [1], the “solubility in sunflower oil higher than in the rest of the oils” value is about 2 fold and the “solubility of praziquantel in most oils” value lay within 5 to 7 mg/g. Moreover, the “solubilized fraction of praziquantel in the aqueous intestinal phase” value in [2] (FaSSIF-V2 with pancreatin, t=15 min) was 51%. The “praziquantel in the aqueous phase, maximum of total drug content” value in data set [2] (simulated gastric digestion (SGF pH 2), within 30 min, plateau to 2 h) was 10%. Besides, in data set [2] (simulated salivary fluid), the “praziquantel detected in the SSF, of total drug content” value was at most 1%.
With `CC[C@H]1OC(=O)[C@H](C)[C@@H](O[C@H]2C[C@@](C)(OC)[C@@H](O)[C@H](C)O2)[C@H](C)[C@@H](O[C@@H]2O[C@H](C)C[C@H](N(C)C)[C@H]2O)[C@](C)(O)C[C@@H](C)CN(C)[C@H](C)[C@@H](O)[C@]1(C)O` [AZT, azithromycin], in data set [1], the “solubility of azithromycin in the oils” value is 6 to 10 mg/g and the “water solubility lower than certain tested formulations” value is about 100 fold. In [3], the “AZT concentrations after heating at 90° C.” value was “no statistical effect of temperature on AZT concentrations”. In data set [4] (reference 39), the “solubility of azithromycin in water” value is about 0.2 mg/g. The “ka (absorption rate constant)” value in data set [5] is 0.452 h⁻¹. The “% drug stable” value in data set [6] (44 days, Propyl gallate) is given as 99 ± 5%.
With `CCCCN(CCCC)CC(O)c1cc(Cl)cc2c1-c1ccc(Cl)cc1/C2=C/c1ccc(Cl)cc1` (stereo not drawn) [lumefantrine], in data set [1], the “average solubility in other Labrafac lipophile formulations lower than with flaxseed oil” value was about 1.6 fold, the “average solubility of lumefantrine” value came to 16.6 ± 3.8 mg/g, the “solubility in tested formulations higher than reported water solubility” value is given as about 10000 fold and the solubility of lumefantrine worked out at 26.6 ± 1.8 mg/g. Besides, the “solubility of lumefantrine in the oils” value in data set [1] is over 10 mg/g. The “reported water solubility of lumefantrine” value in [4] (reference 40) was under 2 µg/g.
For the compound `CCCSc1ccc2nc(NC(=O)OC)[nH]c2c1` [ABZ, albendazole], the “solubility in oil and oil-solubilizer formulations higher than reported water solubility” value in data set [7] was about 10 fold. Also, in data set [8] (90-minute release, not formulated in oil), the “ABZ released and solubilized, plateau concentration” value was determined as 0.05 µg/mL. Besides, in data set [8] (not formulated in oils, FIGS. 36A-36C), the “drug release (in words)” value is “no drug release measured”. For the same compound, the absorption extent in data set [9] is under 5%. Besides, the “reported water solubility of albendazole” value in [10] is 41 µg/g.
With ivermectin, the “drug recovered after heating” value in data set [11] stood at 100%. Also, the “% drug stable” value in [6] (28 days, Butylated hydroxyanisole) is recorded as 98 ± 11%.
